The record followed here is patent US20230143604A1, “QW DOSING OF GIP RECEPTOR AGONIST PEPTIDE COMPOUNDS AND USES THEREOF” (TAKEDA PHARMACEUTICAL COMPANY LIMITED, priority 2020, published 2023).

Where only a bound is given, the exact number is not on record here.

One data set concerns C57BL/6J mice. In words: Oral glucose tolerance test (OGTT). The format is in vivo. The conditions noted are these: 3 nmol/kg s.c., 24 hours before glucose loading. How it is done:
An oral glucose tolerance test (OGTT) was carried out using C57BL/6J mice with a 50% dextrose solution dosed at 5 ml/kg. Testing concentrations of 0.1 nmol/kg, 0.3 nmmol/kg, 3 nmol/kg or 10 nmol/kg were selected depending on the peptide. Each peptide or a vehicle (control group) was subcutaneously administered 24 hours (unless shown otherwise) before glucose loading and the blood glucose was measured at 0, 15, 30, and 60 minutes after glucose dosing.
% inhibition=(1−(AUC cpd−AUC naïve/AUC veh−AUC naïve))×100.

A short description of data set [1]: Solubility in phosphate buffer pH 7.4. In outline:
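Solubility at pH 7.4 determined by stepwise addition of 200 mM phosphate buffer in 100 μL increments to 3 mg peptide, mixing briefly each time, until no insoluble material remained, then measured by liquid chromatography.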

The mark [2] stands for this setting: pH 7.4, aqueous buffer, pH 7.4 Phosphate Buffer - Solubility, 200 mM Phosphate buffer pH 7.4.
Where [3] appears, read: pH 7.4, solubility in phosphate buffer at pH 7.4, 200 mM phosphate buffer pH 7.4.

In the case of `CC[C@H](C)[C@H](NC(=O)[C@H](CO)NC(=O)[C@H](Cc1ccc(O)cc1)NC(=O)[C@H](CC(=O)O)NC(=O)[C@H](CO)NC(=O)[C@@H](NC(=O)[C@H](Cc1ccccc1)NC(=O)[C@@H](NC(=O)CNC(=O)[C@H](CCC(=O)O)NC(=O)C(C)(C)NC(=O)[C@@H](N)Cc1ccc(O)cc1)[C@@H](C)O)[C@@H](C)CC)C(=O)N[C@@H](C)C(=O)N[C@@H](CCCCNC(=O)CNC(=O)CNC(=O)CNC(=O)CNC(=O)CNC(=O)CCCCCCCCCCCCCCCCC(=O)O)C(=O)N[C@@H](CC(=O)O)C(=O)N[C@@H](CCCNC(=N)N)C(=O)NC(C)(C)C(=O)N[C@@H](C)C(=O)N[C@@H](CCC(N)=O)C(=O)NC(C)(C)C(=O)N[C@@H](CC(N)=O)C(=O)N[C@@H](Cc1ccccc1)C(=O)N[C@H](C(=O)N[C@@H](CC(N)=O)C(=O)N[C@@H](Cc1c[nH]c2ccccc12)C(=O)N[C@@H](CC(C)C)C(=O)N[C@@H](CC(C)C)C(=O)N[C@@H](C)C(=O)N[C@@H](CCC(N)=O)C(=O)N[C@@H](CO)C(=O)N1CCC[C@H]1C(=O)N[C@@H](CO)C(=O)N[C@@H](CO)C(=O)NCC(=O)N[C@@H](C)C(=O)N1CCC[C@H]1C(=O)N1CCC[C@H]1C(=O)N1CCC[C@H]1C(=O)N[C@@H](CO)C(=O)O)C(C)C` [Compound 138], the “Oral Glucose Tolerance Test Percent decrease in blood glucose AUC (%) over 60 mins” value with C57BL/6J mice is recorded as 80% (3 nmol/kg). The solubility in data set [1] (setting [2]) was at least 30 mg/mL; in data set [1] (setting [3]), at least 15 mg/mL.
On to `CC[C@H](C)[C@H](NC(=O)[C@H](CO)NC(=O)[C@H](Cc1ccc(O)cc1)NC(=O)[C@H](CC(=O)O)NC(=O)[C@H](CO)NC(=O)[C@@H](NC(=O)[C@H](Cc1ccccc1)NC(=O)[C@@H](NC(=O)CNC(=O)[C@H](CCC(=O)O)NC(=O)C(C)(C)NC(=O)[C@H](Cc1ccc(O)cc1)NC)[C@@H](C)O)[C@@H](C)CC)C(=O)N[C@@H](C)C(=O)N[C@@H](CC(C)C)C(=O)N[C@@H](CC(=O)O)C(=O)N[C@@H](CCCNC(=N)N)C(=O)N[C@@H](CCCCNC(=O)CNC(=O)CNC(=O)CNC(=O)CNC(=O)CNC(=O)CCCCCCCCCCCCCCCCC(=O)O)C(=O)N[C@@H](C)C(=O)N[C@@H](CCC(N)=O)C(=O)NC(C)(C)C(=O)N[C@@H](CC(=O)O)C(=O)N[C@@H](Cc1ccccc1)C(=O)N[C@H](C(=O)N[C@@H](CC(N)=O)C(=O)N[C@@H](Cc1c[nH]c2ccccc12)C(=O)N[C@@H](CC(C)C)C(=O)N[C@@H](CC(C)C)C(=O)N[C@@H](C)C(=O)N[C@@H](CCC(N)=O)C(=O)N[C@@H](CCCNC(=N)N)C(=O)N1CCC[C@H]1C(=O)N[C@@H](CO)C(=O)N[C@@H](CO)C(=O)NCC(=O)N[C@@H](C)C(=O)N1CCC[C@H]1C(=O)N1CCC[C@H]1C(=O)N1CCC[C@H]1C(=O)N[C@@H](CO)C(=O)O)C(C)C` [Compound 51], for which the “Oral Glucose Tolerance Test Percent decrease in blood glucose AUC (%) over 60 mins” value with C57BL/6J mice was 50% (3 nmol/kg). Besides, the solubility was at least 30 mg/mL in data set [1] (setting [2]) and at least 15 mg/mL in data set [1] (setting [3]).
On to `CC[C@H](C)[C@H](NC(=O)[C@H](Cc1ccccc1)NC(=O)[C@@H](NC(=O)CNC(=O)[C@H](CCC(=O)O)NC(=O)C(C)(C)NC(=O)[C@@H](N)Cc1ccc(O)cc1)[C@@H](C)O)C(=O)N[C@@H](CO)C(=O)N[C@@H](CC(=O)O)C(=O)N[C@@H](Cc1ccc(O)cc1)C(=O)N[C@@H](CO)C(=O)N[C@H](C(=O)NC(C)(C)C(=O)N[C@@H](CCCCNC(=O)CNC(=O)CNC(=O)CNC(=O)CNC(=O)CNC(=O)CCCCCCCCCCCCCCCCC(=O)O)C(=O)N[C@@H](CC(=O)O)C(=O)N[C@@H](CCCNC(=N)N)C(=O)N[C@@H](C)C(=O)N[C@@H](C)C(=O)N[C@@H](CCC(N)=O)C(=O)N[C@@H](C)C(=O)N[C@@H](CC(=O)O)C(=O)N[C@@H](Cc1ccccc1)C(=O)N[C@H](C(=O)N[C@@H](CCC(=O)O)C(=O)N[C@@H](Cc1c[nH]c2ccccc12)C(=O)N[C@@H](CC(C)C)C(=O)N[C@@H](CC(C)C)C(=O)N[C@@H](C)C(=O)N[C@@H](CCC(N)=O)C(=O)N[C@@H](CCCNC(=N)N)C(=O)NCC(=O)O)C(C)C)[C@@H](C)CC` [Compound 148], for which the “Oral Glucose Tolerance Test Percent decrease in blood glucose AUC (%) over 60 mins” value in the data set on C57BL/6J mice was 51% (3 nmol/kg). The solubility in data set [1] (pH 7.4) was at least 15 mg/mL; in data set [1] (pH 7.4, aqueous buffer) it was at least 30 mg/mL.
For the compound `CC[C@H](C)[C@H](NC(=O)[C@H](Cc1ccccc1)NC(=O)[C@@H](NC(=O)CNC(=O)[C@H](CCC(=O)O)NC(=O)C(C)(C)NC(=O)[C@H](Cc1ccc(O)cc1)NC)[C@@H](C)O)C(=O)N[C@@H](CO)C(=O)N[C@@H](CC(=O)O)C(=O)N[C@@H](Cc1ccc(O)cc1)C(=O)N[C@@H](CO)C(=O)N[C@H](C(=O)NC(C)(C)C(=O)N[C@@H](CCCCNC(=O)CNC(=O)CNC(=O)CNC(=O)CNC(=O)CNC(=O)CCCCCCCCCCCCCCCCC(=O)O)C(=O)N[C@@H](CC(=O)O)C(=O)N[C@@H](CCCNC(=N)N)C(=O)NC(C)(C)C(=O)N[C@@H](C)C(=O)N[C@@H](CCC(N)=O)C(=O)NC(C)(C)C(=O)N[C@@H](CC(=O)O)C(=O)N[C@@H](Cc1ccccc1)C(=O)N[C@H](C(=O)N[C@@H](CC(N)=O)C(=O)N[C@@H](Cc1c[nH]c2ccccc12)C(=O)N[C@@H](CC(C)C)C(=O)N[C@@H](CC(C)C)C(=O)N[C@@H](C)C(=O)N[C@@H](CCC(N)=O)C(=O)N[C@@H](CCCNC(=N)N)C(=O)N1CCC[C@H]1C(=O)N[C@@H](CO)C(=O)N[C@@H](CO)C(=O)NCC(=O)N[C@@H](C)C(=O)N1CCC[C@H]1C(=O)N1CCC[C@H]1C(=O)N1CCC[C@H]1C(=O)N[C@@H](CO)C(=O)O)C(C)C)[C@@H](C)CC` [Compound 54], the “Oral Glucose Tolerance Test Percent decrease in blood glucose AUC (%) over 60 mins” value with C57BL/6J mice is 43% (3 nmol/kg). In addition, the solubility in data set [1] (setting [2]) was at least 30 mg/mL; in data set [1] (setting [3]), at least 15 mg/mL.
In the case of `CC[C@H](C)[C@H](NC(=O)[C@H](CO)NC(=O)[C@H](Cc1ccc(O)cc1)NC(=O)[C@H](CC(=O)O)NC(=O)[C@H](CO)NC(=O)[C@@H](NC(=O)[C@H](Cc1ccccc1)NC(=O)[C@@H](NC(=O)CNC(=O)[C@H](CCC(=O)O)NC(=O)C(C)(C)NC(=O)[C@H](Cc1ccc(O)cc1)NC)[C@@H](C)O)[C@@H](C)CC)C(=O)N[C@@H](C)C(=O)N[C@@H](CCCCNC(=O)CNC(=O)CNC(=O)CNC(=O)CNC(=O)CNC(=O)CCCCCCCCCCCCCCCCCCC(=O)O)C(=O)N[C@@H](CC(=O)O)C(=O)N[C@@H](CCCNC(=N)N)C(=O)NC(C)(C)C(=O)N[C@@H](C)C(=O)N[C@@H](CCC(N)=O)C(=O)NC(C)(C)C(=O)N[C@@H](CC(=O)O)C(=O)N[C@@H](Cc1ccccc1)C(=O)N[C@H](C(=O)N[C@@H](CC(N)=O)C(=O)N[C@@H](Cc1c[nH]c2ccccc12)C(=O)N[C@@H](CC(C)C)C(=O)N[C@@H](CC(C)C)C(=O)N[C@@H](C)C(=O)N[C@@H](CCC(N)=O)C(=O)N[C@@H](CO)C(=O)N1CCC[C@H]1C(=O)NCC(=O)O)C(C)C` [Compound 111], the “Oral Glucose Tolerance Test Percent decrease in blood glucose AUC (%) over 60 mins” value with C57BL/6J mice is on record as 44% (3 nmol/kg). Besides, the solubility in data set [1] (pH 7.4) is at least 15 mg/mL; in data set [1] (pH 7.4, aqueous buffer), at least 30 mg/mL.
With `CC[C@H](C)[C@H](NC(=O)[C@H](CO)NC(=O)[C@H](Cc1ccc(O)cc1)NC(=O)[C@H](CC(=O)O)NC(=O)[C@H](CO)NC(=O)[C@@H](NC(=O)[C@H](Cc1ccccc1)NC(=O)[C@@H](NC(=O)CNC(=O)[C@H](CCC(=O)O)NC(=O)C(C)(C)NC(=O)[C@H](Cc1ccc(O)cc1)NC)[C@@H](C)O)[C@@H](C)CC)C(=O)N[C@@H](C)C(=O)N[C@@H](CCCCNC(=O)CNC(=O)CNC(=O)CNC(=O)CNC(=O)CNC(=O)CCCCCCCCCCCCCCCCC(=O)O)C(=O)N[C@@H](CC(=O)O)C(=O)N[C@@H](CCCNC(=N)N)C(=O)NC(C)(C)C(=O)N[C@@H](C)C(=O)N[C@@H](CCC(N)=O)C(=O)NC(C)(C)C(=O)N[C@@H](CC(=O)O)C(=O)N[C@@H](Cc1ccccc1)C(=O)N[C@H](C(=O)N[C@@H](CC(N)=O)C(=O)N[C@@H](Cc1c[nH]c2ccccc12)C(=O)N[C@@H](CC(C)C)C(=O)N[C@@H](CC(C)C)C(=O)N[C@@H](C)C(=O)N[C@@H](CCC(N)=O)C(=O)N[C@@H](CCCNC(=N)N)C(=O)N1CCC[C@H]1C(=O)N[C@@H](CO)C(=O)N[C@@H](CO)C(=O)NCC(=O)O)C(C)C` [Compound 70], the “Oral Glucose Tolerance Test Percent decrease in blood glucose AUC (%) over 60 mins” value in the data set on C57BL/6J mice was 56% (3 nmol/kg). The solubility in data set [1] (pH 7.4) is at least 15 mg/mL; in data set [1] (pH 7.4, aqueous buffer), at least 30 mg/mL.
Turning to `CC[C@H](C)[C@H](NC(=O)[C@H](CO)NC(=O)[C@H](Cc1ccc(O)cc1)NC(=O)[C@H](CC(=O)O)NC(=O)[C@H](CO)NC(=O)[C@@H](NC(=O)[C@H](Cc1ccccc1)NC(=O)[C@@H](NC(=O)CNC(=O)[C@H](CCC(=O)O)NC(=O)C(C)(C)NC(=O)[C@@H](N)Cc1ccc(O)cc1)[C@@H](C)O)[C@@H](C)CC)C(=O)N[C@@H](C)C(=O)N[C@@H](CCCCNC(=O)CNC(=O)CNC(=O)CNC(=O)CNC(=O)CNC(=O)CCCCCCCCCCCCCCCCC(=O)O)C(=O)N[C@@H](CC(=O)O)C(=O)N[C@@H](CCCNC(=N)N)C(=O)NC(C)(C)C(=O)N[C@@H](C)C(=O)N[C@@H](CCC(N)=O)C(=O)NC(C)(C)C(=O)N[C@@H](CC(=O)O)C(=O)N[C@@H](Cc1ccccc1)C(=O)N[C@H](C(=O)N[C@@H](CCC(=O)O)C(=O)N[C@@H](Cc1c[nH]c2ccccc12)C(=O)N[C@@H](CC(C)C)C(=O)N[C@@H](CC(C)C)C(=O)N[C@@H](C)C(=O)N[C@@H](CCC(N)=O)C(=O)N[C@@H](CCCNC(=N)N)C(=O)NCC(=O)O)C(C)C` [Compound 144], the “Oral Glucose Tolerance Test Percent decrease in blood glucose AUC (%) over 60 mins” value in the data set on C57BL/6J mice was 35% (3 nmol/kg). The solubility was at least 15 mg/mL in data set [1] (pH 7.4) and at least 30 mg/mL in data set [1] (pH 7.4, aqueous buffer).

What is called solubility is how much of the substance goes into solution per volume. Low values mean little dissolved substance, high ones much dissolved substance.
